Laboratory results as given in publication PMC10685318, “Trans-cyclosulfamidate mannose-configured cyclitol allows isoform-dependent inhibition of GH47 α-D-mannosidases through a bump–hole strategy” (Chemical Science, 2023).

Target: T1, MAN2A2 (Homo sapiens, UniProt P49641)
T1 construct: expressed in transfected cells
T1 sequence (P49641 1-1150): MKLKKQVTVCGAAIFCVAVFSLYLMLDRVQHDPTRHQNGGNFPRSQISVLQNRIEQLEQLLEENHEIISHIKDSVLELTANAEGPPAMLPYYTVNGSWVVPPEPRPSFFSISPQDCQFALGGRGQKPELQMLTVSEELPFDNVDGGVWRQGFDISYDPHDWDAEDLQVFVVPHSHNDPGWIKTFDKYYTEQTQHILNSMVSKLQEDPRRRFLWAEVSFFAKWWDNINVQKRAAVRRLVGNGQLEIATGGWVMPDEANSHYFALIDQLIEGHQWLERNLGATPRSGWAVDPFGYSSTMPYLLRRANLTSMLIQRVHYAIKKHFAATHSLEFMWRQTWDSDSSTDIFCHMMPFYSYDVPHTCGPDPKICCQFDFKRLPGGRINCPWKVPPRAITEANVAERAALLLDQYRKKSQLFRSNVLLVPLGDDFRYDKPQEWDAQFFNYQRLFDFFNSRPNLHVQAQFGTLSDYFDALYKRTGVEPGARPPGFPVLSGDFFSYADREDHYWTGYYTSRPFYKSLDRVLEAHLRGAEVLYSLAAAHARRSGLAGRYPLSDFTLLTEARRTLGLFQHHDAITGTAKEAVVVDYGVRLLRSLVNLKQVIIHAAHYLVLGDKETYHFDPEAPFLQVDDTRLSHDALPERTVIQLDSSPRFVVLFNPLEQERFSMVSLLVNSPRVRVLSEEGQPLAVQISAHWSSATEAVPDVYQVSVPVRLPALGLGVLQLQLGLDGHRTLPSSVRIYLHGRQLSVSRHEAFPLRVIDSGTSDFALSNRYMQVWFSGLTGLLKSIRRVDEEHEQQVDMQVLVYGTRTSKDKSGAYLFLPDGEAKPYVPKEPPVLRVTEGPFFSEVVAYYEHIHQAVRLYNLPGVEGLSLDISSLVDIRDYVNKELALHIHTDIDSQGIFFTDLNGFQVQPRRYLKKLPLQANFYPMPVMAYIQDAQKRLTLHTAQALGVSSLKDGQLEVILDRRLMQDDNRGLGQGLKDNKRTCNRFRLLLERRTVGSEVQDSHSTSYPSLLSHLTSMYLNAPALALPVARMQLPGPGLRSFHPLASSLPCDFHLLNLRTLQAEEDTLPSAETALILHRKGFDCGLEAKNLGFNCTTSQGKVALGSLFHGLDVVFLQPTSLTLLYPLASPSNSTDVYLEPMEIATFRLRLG
Test: 4-MU-α-man activity assay in overexpressed cell lysates
Assay type: biochemical
Source text: Finally, selectivity versus a panel of related exo-mannosidases was investigated. We first tested inhibition against all five human GH38 retaining α-mannosidases in overexpressed cell lysates using 4-methylumbelliferyl-α-mannoside (4-MU-α-man): Golgi mannosidase II and IIx (MAN2A1 and MAN2A2), cytosolic MAN2C1 and lysosomal MAN2B1 and MAN2B2. This α-mannosidase family follows a different conformational itinerary than GH47: ^0S2 → B2,5 → ^1S5.[35] […] Of note, the presence of cobalt has been associated with conformational changes in the active site of some GH38 α-mannosidases, which might affect the binding interaction with inhibitors.[36] Nevertheless, additional research is required to explore which specific metal ion is present in the MAN2C1 active site in its in vivo state.
Trans-Cyclosulfamidate Cyclitols Males et al.
2.3 GH38 α-mannosidases and GH2 β-mannosidase inhibition studies
All chemicals were of analytical grade and purchased from Sigma-Aldrich unless stated otherwise.
Optimal stability of cell homogenates and enzyme working stocks was ensured by preparation and temporary storage on ice. Cell homogenates were prepared and used on the same day. Protein concentrations were quantified using the Pierce BCA Protein Assay Kit (ThermoFisher). Protein samples were measured in clear flat-bottom polystyrene 96 well microplates (Greiner Bio-One) using a EMax Plus Microplate Reader (Molecular Devices). Activity measurements of human GH38 α-mannosidases and bacterial β-mannosidase BtMan2A were performed in black flat-bottom polystyrene 96 wells microplates (Greiner Bio-One) and total fluorescence was measured using a Perkin Elmer LS-55 fluorescence spectrometer at wavelengths λex = 366 and λem = 445 nm, with the signal optimized for medium gain readings. The fluorescence values of each enzyme sample were corrected for the background signal of a blank sample containing no enzyme. In the case of IC50 determinations, values were normalized against a control sample containing enzyme without added inhibitor. For a single experiment, three separate curves were fitted from a technical triplicate by setting the inhibitor concentration in µM against the normalized response using GraphPad Prism 8.4.2 software. The Prism functions ‘[inhibitor] versus normalized response’ and ‘[inhibitor] versus normalized response -- variable slope’ were compared for each curve using the Akaike’s Information Criterion method to select the preferred model. Reported IC50 values are mean ± standard deviation from a biological […]
General cell culture protocol
HEK293T cells were grown to confluency at 37 °C under a 5% CO2 atmosphere in Dulbecco’s Modified Eagle’s Medium (DMEM) with a high glucose concentration (Capricorn Scientific, DMEM-HPXA) that was supplemented with 10% fetal calf serum, 0.1% (w/v) penicillin/streptomycin and 1% (v/v) Glutamax. Cells were passaged twice a week to new round polystyrene (PS) tissue culture dishes (Sarstedt) by detachment off the former culture plates by careful pipetting. To prepare cell pellets for activity measurements, plates were grown to confluency and harvested in phosphate buffered saline (PBS). After centrifugation at 1500 rpm for 5 min, the remaining PBS was aspirated and the cells were resuspended in fresh PBS. The concentration of the resulting suspension was then counted using a TC20 automated cell counter (BioRad). Aliquots were centrifuged at 2000 rpm for 5 min and the resulting cell pellets were stored at -80 °C until further use.
4-MU activity assay protocol for human GH38 α-mannosidases
HEK293T cells stably overexpressing human GH38 α-mannosidases MAN2A1, MAN2A2, MAN2B1, MAN2B2 and MAN2C1 were prepared as previously described[11] and were kindly donated by Dr. C. L.
Kuo. Homogenates were prepared by sonicating cell pellets (Sonics VibraCell, 5x1 s with 30 s interval at 20% amplitude) in 150 mM McIlvain buffer of pH 5.5 (MAN2A1, MAN2A2), pH 4.5 (MAN2B1, MAN2B2) or pH 6.7 (MAN2C1) containing either 2 mM ZnCl2 (MAN2A1, MAN2A2, MAN2B1, MAN2B2) […]

`O=S1(=O)N[C@@H]2[C@@H](O)[C@@H](O)[C@H](O)[C@@H](CO)[C@H]2O1` [compound 6, 1,6-trans-manno-cyclosulfamidate] was tested, and the “activity when the buffer was enriched with CoCl2” value (CoCl2) was “no activity” and the IC50 (Zn2+) was > 1000 µM.
